Laboratory results reported in patent publication US6498945B1, “Sonodynamic therapy using an ultrasound sensitizer compound” (Amersham Health AS, priority 1997, dated 2002).
“Also recorded” adds a separate entry of the source. Read-outs that look alike come from different tables or passages of the source. Blank lines part the entries; values can stand above or below the compound they belong to.

Experiments:
HT-29 tumors [1] = conditions: mouse, in vivo
From the text: (§1) FIG. 2A is a graph of comparative biodistribution data of contrast agent Polymer 3 (NC100448) versus indocyanine green as control in female immunodeficient mice containing HT-29 tumors at one hour post intravenous injection of phosphate buffered saline solutions of each.
(§2) FIG. 2B is a graph of comparative biodistribution data of contrast agent Polymer 3 (NC100448) versus indocyanine green as control in female immunodeficient mice containing HT-29 tumors at three hours post intravenous injection of phosphate buffered saline solutions of each.

[2] = system: leucocytes (white blood cells); experiment: Fate in dog blood (confocal scanning microscope, flow cytometry); format: in vivo; conditions: injected into beagle dogs; flow cytometry and fluorescence microscopy
STa receptor = STa receptor (Homo sapiens, UniProt P25092); experiment: Competitive inhibition of the STa receptor; format: binding
Sequence of STa receptor (P25092 24-1073, species assumed): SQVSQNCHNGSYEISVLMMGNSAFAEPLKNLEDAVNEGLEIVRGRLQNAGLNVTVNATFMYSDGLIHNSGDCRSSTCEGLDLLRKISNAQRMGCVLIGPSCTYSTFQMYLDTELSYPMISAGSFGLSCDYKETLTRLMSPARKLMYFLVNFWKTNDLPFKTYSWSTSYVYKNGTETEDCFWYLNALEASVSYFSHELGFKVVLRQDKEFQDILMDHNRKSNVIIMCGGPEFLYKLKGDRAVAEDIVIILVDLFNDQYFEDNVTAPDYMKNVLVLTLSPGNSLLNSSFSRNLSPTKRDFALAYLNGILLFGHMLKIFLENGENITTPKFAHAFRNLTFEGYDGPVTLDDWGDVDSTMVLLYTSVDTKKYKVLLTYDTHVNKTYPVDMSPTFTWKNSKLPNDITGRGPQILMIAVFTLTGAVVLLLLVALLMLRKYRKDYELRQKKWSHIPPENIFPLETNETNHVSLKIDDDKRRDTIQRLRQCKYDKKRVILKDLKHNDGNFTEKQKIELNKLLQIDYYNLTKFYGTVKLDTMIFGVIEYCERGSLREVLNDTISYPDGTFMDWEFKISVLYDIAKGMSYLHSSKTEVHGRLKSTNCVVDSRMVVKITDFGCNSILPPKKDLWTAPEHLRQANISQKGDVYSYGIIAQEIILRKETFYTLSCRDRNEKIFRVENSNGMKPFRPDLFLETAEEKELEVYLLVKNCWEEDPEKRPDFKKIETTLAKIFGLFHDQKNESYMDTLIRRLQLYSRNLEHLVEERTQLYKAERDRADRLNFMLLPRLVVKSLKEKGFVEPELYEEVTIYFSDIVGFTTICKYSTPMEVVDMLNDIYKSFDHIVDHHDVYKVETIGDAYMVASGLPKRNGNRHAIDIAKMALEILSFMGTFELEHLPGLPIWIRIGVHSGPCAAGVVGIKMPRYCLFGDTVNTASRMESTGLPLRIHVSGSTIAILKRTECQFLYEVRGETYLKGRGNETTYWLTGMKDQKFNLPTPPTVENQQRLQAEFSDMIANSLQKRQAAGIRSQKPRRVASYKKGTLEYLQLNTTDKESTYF
Method: Isolation and purification were done using the same HPLC conditions yielding about 0.1 mg yellow product. Ultra violet maxima in 1/1 water/methanol 10 mM ammonium acetate were: 202 nm (a 0.822), 277 nm (a 0.096), 457 nm (a 0.096), 482 nm (a 0.107). Mass spectrum (electrospray, negative): M−H 2359; M+Na 2381; theoretical M 2360.

[3] = cited from earlier work
HT-29 tumors [4] = experiment: Biodistribution / tumor localization in immunodeficient mice with HT-29 tumors; conditions: female immunodeficient mice with HT-29 tumors
From the text: as §1, §2

[5] = system: HL-60 human peripheral blood promyelocytic leukemia cells; experiment: Sonication of HL-60 cell suspensions in vitro, cell death by Trypan Blue and LDH; format: cell-based; conditions: 148 nanomoles/ml, insonated 60 and 120 seconds, 65 volts, 47 kHz bath
Method: HL-60 human peripheral blood promyelocytic leukemia cells (American Type Culture Collection, Rockville, Md.) were grown at 37° C. in a 5% CO2/air atmosphere, in a 1:1 mixture of DMEM and IMEM fortified with 10% fetal bovine serum. Before use, the cells were centrifuged (5 min. at 1500 rpm), washed with phosphate buffered saline (PBS), and then resuspended in PBS, the volume being adjusted to provide cell suspensions containing […]. These were stored in crushed ice until used.
Viability was assessed by staining with Trypan Blue dye. 50 μl of the suspension were mixed with […] Trypan Blue solution (0.4%, Sigma), and the cell concentration counted using a Neubauer-type hemocytometer. Four or five large squares were counted, the blue (dead) cells being counted separately from the unstained (live) cells, and the results averaged. […]
For insonation, the voltage was set to the required value, the power was turned on, and the sample exposed for the required amount of time (secs.). Viability was again assessed with Trypan Blue, the samples were then centrifuged for 5 minutes at 2000 rpm, and a sample of cell free supernatant liquid taken for lactate dehydrogenase (LDH) measurement. […] The LDH was measured by a standard procedure using a Beckman Synchron CX5CE Instrument, the results were measured in IU/l, and afforded a quantitative measurement of cell death in the samples. […]

Compound: ClAlPc(SO2NHPEG5000)4 [Example 45]
- injected dose localized in the tumor after one hour (HT-29 tumors [1]): 2.5 % of the injected dose

- injected dose localized in the tumor after one hour (HT-29 tumors [1]): 0.1 % of the injected dose
Compound: [Melamine][SO2ClAlPc(SO3H)3]3 [Example 46]

Compound: copolymer of PEG 5000-α,ω-diamine and aluminum(III)phthalocyanine tetrasulfonyl chloride [Example 4]
- injected dose localized in the tumor after one hour (HT-29 tumors [1]): 2.5 % of the injected dose

Compound: bisthioether 2:1 dye:polymer reaction product between 2-[2-[2-chloro-3-[[1,3-dihydro-1,1,-dimethyl-3-(3-sulfopropyl)-2H-benz[e]indol-2-ylidene]ethylidene]-5-(ethoxycarbonyl)-1-cyclohexen-1-yl]ethenyl]-1,1-dimethyl-3-(3-sulfopropyl)-1H-benz[e]indolium, inner salt, sodium salt and disodium PEG3,400-α,ω-dithiolate [Polymer 3]
- concentration in the blood at three hours relative to one hour (HT-29 tumors [1]): decreased
- concentration in the tumor at three hours relative to one hour (HT-29 tumors [1]): increased
- detection in the tumor (FIG. 2A) (HT-29 tumors [1]; iv): detected in the tumor
- detection in the tumor (FIG. 2B) (HT-29 tumors [1]; iv): detected in the tumor

Compound: [NH(PEG3400)NHSO2PcAlCl(SO3H)2SO2]n [Example 43]
- injected dose localized in the tumor after one hour (HT-29 tumors [1]): 4 % of the injected dose

Compound: Air-exposed-Tetronic-908-conjugated-to-fluorescein Isothiocyanate
- binding to blood cells [2]: binds to a specific cell class within the blood; also recorded: attached to leucocytes (white blood cells)

Compound: Thiourea Linked 5-fluorescein to STa (syn. 2) [Example 79]
- competitive inhibitor of the STa receptor (STa receptor): tested positive

Compound: Oc1ccc2ccccc2c1N=Nc1ccc(N=Nc2ccccc2)cc1 [Sudan III]
- solubility in sesame oil ([3]; sesame oil): soluble in sesame oil
- solubility in water ([3]; water): very insoluble in water

- detection in the tumor (FIG. 2A) (HT-29 tumors [4]; one hour post intravenous injection, PBS solution): negligibly detected
- detection in the tumor (FIG. 2B) (HT-29 tumors [4]; three hours post intravenous injection, PBS solution): negligibly detected
Compound: CC1(C)C(/C=C/C=C/C=C/C=C2\N(CCCCS(=O)(=O)O)c3ccc4ccccc4c3C2(C)C)=[N+](CCCCS(=O)(=O)[O-])c2ccc3ccccc3c21 [indocyanine green]

Compound: chloroaluminum phthalocyanine tetrasulfonate
- cell killing under ultrasound (FIG. 1) [5]: Enhancement of Cell Killing

Compound: copolymer of PEG3400-α,ω-diamine and aluminum(III)phthalocyanine tetrasulfonyl chloride [Example 1]
- injected dose localized in the tumor after one hour (HT-29 tumors [4]; solution in phosphate buffered saline injected, one hour): 4 % of the injected dose

- melting point: 238 to 240 °C
Compound: CCOC(=O)c1c(I)c(NS(=O)(=O)c2cccc3c(N(C)C)cccc23)c(I)c(N(CC)C(C)=O)c1I [Example 52, Ethyl 3-(N-Acetyl-N-ethylamino)-5-[(5-dimethylamino-1-naphthylsulfonyl)amino]-2,4,6-triiodobenzoate]

- injected dose localized in the tumor after one hour (HT-29 tumors [1]): 0.1 % of the injected dose
Compound: copolymer of melamine and aluminum(III)phthalocyanine tetrasulfonyl chloride [Example 5]
